Test results from patent US20020156038A1, “Gene expression profiling of antidepressant action in the brain” (priority 2000, published 2002).
Counter-ions that a name gives are not always drawn.

What was measured:
[1] = tested on: tyrosine hydroxylase mRNA; assay: Quantitative in situ hybridization histochemistry in locus coeruleus; assay type: in vivo, rat; settings: LC
Description: In situ hybridization histochemistry was performed according to the procedures described [Bonaventure, 1998 #353] on adjacent tissue sections of the one used for LCM. The plasmid (pBluescript II SK, Stratagene, San Diego, Calif.) containing the cDNA coding for tyrosine hydroxylase (GB:M10244) was linearized and [^35S]UTP labeled cRNA probe was generated by in vitro transcription with T7 polymerase. Sections were hybridized at 50° C. with 1.106 c.p.m of [^35S]UTP labeled cRNA probe (80 μl per section). After high stringency washes, the sections were exposed to Kodak BiomaxMR film for sixteen hours. [^14C] standard strips (American Radiolabeled chemicals Inc., St Louis, Missouri) were co-exposed to allow densitometry. Autoradiograms were quantified with the aid of an MCID-M4 3.0 Image Analysis system (Imaging Research, St. Catharines, Ontario, Canada). Optical densities in the LC were transformed into levels of bound radioactivity after calibration of the image analyzer with grey-values generated by co-exposed standards. The hybridization signal was expressed as μCi/g. The Student's t-test was used for comparison between the groups.

male Wistar rats = assay: Chronic mild stress (CMS) model, consumption of 1% sucrose solution; assay type: in vivo, rat; settings: for sucrose intake as compared to chronic vehicle administration: control animals; for duration of treatment until increase of sucrose intake reached significance / sucrose consumption (CMS-induced deficit) / sucrose intake at end of treatment vs vehicle-treated controls / sucrose intake at end of treatment vs vehicle-treated stressed animals: stressed animals; for sucrose intake at end of treatment vs vehicle-treated controls / sucrose intake at end of treatment vs vehicle-treated stressed animals: Week 5
From the text: Gene expression profiling of antidepressants should be carried in the context of a behavioral model of depression. […] [Willner, 1997 #144] [Yadid, 2000 #422]. The CMS model was developed to mimic anhedonia, a core symptom of depressive disorders. Chronic sequential administration of a variety of mild stressors causes a decrease in responsiveness to rewards in rats, which is reversed by chronic administration of antidepressants drugs [Willner, 1992 #150]. The CMS model of depression also causes a decrease in body weight [Forbes, 1996 #413] but the magnitude of this decrease is minor and the validity, reliability and utility of the CMS is overall well recognized [Yadid, 2000 #422] [Argyropoulos, 1997 #205] #] [Willner, 1996 #226].
On the basis of sucrose intake scores following two weeks of stress, both stressed and control groups were divided further into matched subgroups (n=8), and for the subsequent five weeks received twice-daily intraperitoneal injections of vehicle (isotonic mannitol solution, pH 4.0, 1 ml/kg) or novelR1 (0.16 mg/kg). […] Sucrose tests were carried out twenty-four hours following the last drug injection (in the case of b.i.d. regime, the second injections on the day preceding the sucrose tests were omitted).
The behavioral results obtained in this study were analyzed by multiple analysis of variance with three between-subjects factors (stress/control, drug treatments and successive sucrose tests). Fisher's LSD test was used for post-hoc comparisons of means.

| SMILES | up-regulation of tyrosine hydroxylase mRNA level by in situ hybridization ([1]; drug/CMS group) | up-regulation of tyrosine hydroxylase mRNA level by in situ hybridization ([1]; unstressed rats) | sucrose intake at the end of the behavioral experiment (male Wistar rats; CMS) | sucrose intake at the end of the behavioral experiment (male Wistar rats; control) | sucrose intake as compared to chronic vehicle administration (male Wistar rats) | duration of treatment until increase of sucrose intake reached significance (male Wistar rats) | sucrose consumption (CMS-induced deficit) (male Wistar rats) | sucrose intake at end of treatment vs vehicle-treated controls (male Wistar rats) | sucrose intake at end of treatment vs vehicle-treated stressed animals (male Wistar rats) |
| --- | --- | --- | --- | --- | --- | --- | --- | --- | --- |
| CN(C)CCCN1c2ccccc2CCc2ccccc21 [imipramine, imipramine HCl] | confirmed | confirmed | 13 grams | 13 grams | did not change the sucrose intake | three | gradually increased the sucrose consumption | comparable | significantly higher |
| Cc1nc2ccccn2c(=O)c1CCN1CCc2oc3ccccc3c2C1 [novelR1] | confirmed | confirmed | 13 grams | 13 grams | no significant effect | two | fully reversed | did not differ | significantly higher |
